Results on one molecule are retold here after patent US20240299361A1, “VETERINARY TRANSDERMAL GEL COMPRISING ONDANSETRON, AND RELATED METHODS” (Verté Therapeutics, LLC, priority 2023, published 2024).

This data set can be described thus: Visual solubility screen for Ondansetron HCl in solvents/excipients. Type of data set: physicochemical. The method, then:
The purpose of this study was to evaluate the solubility of Ondansetron HCl in an array of solvents/excipients to develop a stable topical formulation for transdermal application in cats and dogs. In this screen, evaluation of solubility was determined by visual examination only.
The following procedure was used to determine solubility of the API (Ondansetron HCl): • a. Label 20 mL USP Type I scintillation vials appropriately for each solvent/solvent blend that will be tested. Although API is light sensitive, clear glass vials will be used, as the study is a visual assessment only. • b. Place a stir bar in each vial. Weigh the empty vial containing stir bar and cap with inert liner. Record the tare weight. • c. Weigh approximately 3.0 g of each solvent into the designated vial. • d. Weigh approximately 30.0 mg of the API into each vial. • e. Place all closed vials on a stir plate and allow mixing for at least 30 minutes at ambient conditions. • f. Visually inspect to see if the API has completely dissolved. Record the stir time and observations. • g. If the API has dissolved, repeat steps d to f until saturation solubility is achieved or up to 10% w/w. • h. Record additional API aliquots added to the mixture. Continue stirring solutions overnight at ambient temperature to confirm solubility is maintained. • i. Record the final weight of the vial, cap, stir bar, and sample to calculate the total amount of active and/or solvent added at room temperature. • j. Heat (if applicable) all the vials in which API is not soluble to 65° C. for 1 hour and check the solubility. Allow them to cool to room temperature and check for any precipitation in the vials in which API was soluble when heated. Perform microscopy as deemed necessary. • k. Confirm the pH of buffer solutions after addition and solubilization (if applicable) of the API. • l. Record final observations and take pictures as needed to document the observations.
Upon addition of Ondansetron HCl to each solvent, vials were subjected to stirring at room temperature at 400 RPM.
For the secondary solvent solubility screen, solvents which required heating as primary systems were blended at a 1:1 ratio with other solubilizers being screened.

Structures can show the parent of a compound that is named as a salt.

On to `Cc1nccn1CC1CCc2c(c3ccccc3n2C)C1=O` (stereo not shown) [Ondansetron HCl], for which the “Solubility (visual)” value by setting is: (in Citrate buffer USP (pH 3.0), without heating) “at least 1 % w/w”; (in DMSO, without heating) “at least 1 % w/w”; (in PEG 400, without heating) “at least 1 % w/w”; (in absolute alcohol, without heating) “at least 1 % w/w”; (in benzyl alcohol, without heating) “at least 1 % w/w”; (in diethylene glycol monoethyl ether, without heating) “at least 1 % w/w”. The “Solubility (visual)” value (in propylene glycol, without heating) was “at least 1 % w/w”. Besides, the “Solubility achieved (visual)” value is reported as at least 10% (in DMSO), at least 10% (in benzyl alcohol) and at least 10% (in propylene glycol).
